Data set [1] is described as follows: Antidepressant activity (general statement). The following applies: in vivo.
Another data set relates to reserpine-induced ptosis. Kind of data set: Test for anti-reserpine activity (inhibition of reserpine-induced ptosis). The format is in vivo, male mice of the ddy strain. The following applies: Mus musculus, po, read-out: Reserpine inhibition (percentage inhibition of reserpine-induced ptosis); for inhibition in vivo at 50 mg/kg: 50 mg/kg orally, reserpine 2 mg/kg s.c., sum of observations at 90, 120 and 180 min, groups of three mice. The method, then: 1 Test for anti-reserpine activity
The test animals used were male mice of the ddy strain, each weighing 23-25 g. Each compound was tested on a group of three such mice. Each test compound was employed in the form of a solution or suspension in a physiological saline solution containing 0.3% w/v carboxymethylcellulose. The test employed was a partial modification of the method of Rubin et al. [J. Pharmacol. Exptl.
At each observation, each mouse was assigned from 0 to 3 points corresponding to the degree of ptosis, as follows:
0 points: eyes completely open;
1 point: eyes about one third closed;
2 points: eyes about two thirds closed;
3 points: eyes completely closed.
For each mouse, the number of points from all three observations were added together and the percentage inhibition of reserpine-induced ptosis was calculated from the following formula: [formula] in which:
Po =total number of points from three observations of an animal to which reserpine alone was administered; and
Pt =total number of points from three observations of an animal to which reserpine and the test compound were administered.

Another data set in a line: Acute toxicity test. It counts as in vivo, male mice of the ddy strain. Conditions: for Mortality (deaths/animals tested): 7 days observation. The protocol:
The test animals used were male mice of the ddy strain, each weighing from 21 to 25 g. To each animal was administered orally a single dose of the test compound in the amount shown in Table 2; the animals were then placed under observation for 7 days after administration. The results are reported in Table 2 as "Mortality", where the numerator indicates the number of deaths in the observation period and the denominator indicates the number of animals tested with the particular test compound at the particular dose.

The next data set concerns effects of d-amphetamine. Kind of data set: Potentiation of d-Amphetamine effects. The format is in vivo, male rats of the Wistar strain. The following applies: 10 mg/kg orally, 60 min before d-amphetamine sulphate 2.5 mg/kg s.c.; observations 30-240 min; groups of 4 rats. The method, then: 2. Potentiation of d-Amphetamine effects
The test animals used in this experiment were male rats of the Wistar strain, each weighing from 250 to 300 g. The rats were employed in groups of 4 animals each, for each test. The test compound was employed in the form of a solution or suspension in physiological saline containing 0.3% w/v carboxymethylcellulose.
Each rat was placed in an observation cage and then given orally the solution or suspension of the test compound in an amount of 10 mg of test compound per kilogram body weight; 60 minutes later, 2.5 mg/kg of d-amphetamine sulphate were injected subcutaneously. The rats were observed 30 minutes, 60 minutes, 90 minutes, 120 minutes, 150 minutes, 180 minutes and 240 minutes after the injection of the d-amphetamine sulphate. At each observation, each animal was assigned from 0 to 5 points according to its mobility, as follows:
1 point: slight moving around;
3 points: sniffing appears;
4 points: licking appears;
5 points: biting appears.
The percentage potentiation of the effects of d-amphetamine was then calculated from the following formula: [formula] where:
P'o =total number of points from all observations of an animal to which d-amphetamine alone was administered; and
P't =total number of points from all seven observations of an animal to which both the test compound and d-amphetamine were administered.

Where a name gives a salt, the structure may show the parent alone.

The text below walks through data of patent publication US4450162A, “Pyrimidine derivatives and a pharmaceutical composition containing them” (Sankyo Company, Limited, priority 1981, dated 1984).

Regarding `Cc1ncnc(Nc2ccccc2)c1Br` [4-anilino-5-bromo-6-methylpyrimidine], the antidepressant activity entry in data set [1] is given as “no antidepressant activity”.

`c1ccc(Nc2ncnc3c2CCC3)cc1` [Compound No. 2, 4-Anilino-6,7-dihydro-5H-cyclopenta[d]pyrimidine hydrochloride]: in the data set on reserpine-induced ptosis, the inhibition in vivo at 50 mg/kg was found to be 68.7%.

Consider `Clc1ccc(Nc2ncnc3c2CCC3)cc1` [Compound No. 3, 4-(4-Chloroanilino)-6,7-dihydro-5H-cyclopenta[d]pyrimidine], for which the inhibition in vivo at 50 mg/kg in the data set with reserpine-induced ptosis stood at 82.3%.

For the compound `Brc1ccc(Nc2ncnc3c2CCC3)cc1` [Compound No. 5, 4-(4-Bromoanilino)-6,7-dihydro-5H-cyclopenta[d]pyrimidine], the inhibition in vivo at 50 mg/kg in the data set with reserpine-induced ptosis came out at 75.6%. Besides, the “Mortality (deaths/animals tested)” value in the data set “Acute toxicity test” (single oral dose 500 mg/kg) and in “Acute toxicity test” (single oral dose 1000 mg/kg) was 0/5 in each case.

In the case of `N#Cc1ccc(Nc2ncnc3c2CCC3)cc1` [Compound No. 14, 4-(4-Cyanoanilino)-6,7-dihydro-5H-cyclopenta[d]pyrimidine], in the data set with reserpine-induced ptosis, the inhibition in vivo at 25 mg/kg came to 85%.

For the compound `Cc1ncnc(Nc2ccc(Cl)cc2)c1C` [Compound No. 25, 4-(4-Chloroanilino)-5,6-dimethylpyrimidine], the inhibition in vivo at 50 mg/kg with reserpine-induced ptosis is 61.1%. The “d-Amphetamine potentiation (percentage potentiation of the effects of d-amphetamine)” value in the data set with effects of d-amphetamine was found to be 75%.

With `Cc1ncnc(Nc2ccc(Br)cc2)c1C` [Compound No. 28, 4-(4-Bromoanilino)-5,6-dimethylpyrimidine], in the data set on reserpine-induced ptosis, the inhibition in vivo at 50 mg/kg worked out at 61.1%. Also, the “d-Amphetamine potentiation (percentage potentiation of the effects of d-amphetamine)” value with effects of d-amphetamine worked out at 79%. In “Acute toxicity test” (single oral dose 1000 mg/kg), the “Mortality (deaths/animals tested)” value is listed as 0/5.

In the case of `Cc1ncnc(Nc2ccc(C(F)(F)F)cc2)c1C` [Compound No. 38, 5,6-Dimethyl-4-(4-trifluoromethylanilino)pyrimidine], the inhibition in vivo at 50 mg/kg in the data set on reserpine-induced ptosis is 68.8%.

On to `Cc1ncnc(Nc2ccc(C(C)C)cc2)c1C` [Compound No. 47, 4-(4-Isopropylanilino)-5,6-dimethylpyrimidine], for which the inhibition in vivo at 50 mg/kg in the data set on reserpine-induced ptosis is 70.6%.

Consider `CN(C)CCCN1c2ccccc2CCc2ccccc21` [Imipramine hydrochloride, reference compound], for which the inhibition in vivo at 50 mg/kg with reserpine-induced ptosis was determined as 72.2%. Moreover, the “d-Amphetamine potentiation (percentage potentiation of the effects of d-amphetamine)” value in the data set with effects of d-amphetamine came out at 77%. Moreover, the “Mortality (deaths/animals tested)” value in the data set “Acute toxicity test” (single oral dose 500 mg/kg) is on record as 3/5. Moreover, the “Mortality: deaths on day 3” value in the data set “Acute toxicity test” (single oral dose 500 mg/kg, on day 3) worked out at 1. Moreover, the “Mortality: deaths within 1 hour” value in “Acute toxicity test” (single oral dose 500 mg/kg, within 1 hour) was determined as 2.

For the compound `CCc1ccc(Nc2ncnc3c2CCC3)cc1` [compound 9, 4-(4-Ethylanilino)-6,7-dihydro-5H-cyclopenta[d]pyrimidine], the inhibition in vivo at 50 mg/kg in the data set on reserpine-induced ptosis was 82.3%.

Regarding `FC(F)(F)c1ccc(Nc2ncnc3c2CCC3)cc1` [compound 11, 4-(4-Trifluoromethylanilino)-6,7-dihydro-5H-cyclopenta[d]pyrimidine], the inhibition in vivo at 50 mg/kg with reserpine-induced ptosis worked out at 62.5%.

Regarding `Cc1ncnc(Nc2ccc(I)cc2)c1C` [compound 32, 4-(4-Iodoanilino)-5,6-dimethylpyrimidine], in the data set with reserpine-induced ptosis, the inhibition in vivo at 50 mg/kg is 43.8%. For the same compound, the “d-Amphetamine potentiation (percentage potentiation of the effects of d-amphetamine)” value in the data set on effects of d-amphetamine was 76%.

Consider `CCCCc1c(C)ncnc1Nc1ccc(Br)cc1` [compound 69, 4-(4-Bromoanilino)-5-n-butyl-6-methylpyrimidine], for which, in the data set on effects of d-amphetamine, the “d-Amphetamine potentiation (percentage potentiation of the effects of d-amphetamine)” value was 94%.
